# Reference: article PMC6100724, “Proteome‐wide analysis of phospho‐regulated PDZ domain interactions” (Molecular Systems Biology, 2018)
# Experiments:
# Test in all cases: Phosphomimetic ProP-PD selection with NGS
# DLG1 PDZ2 = target: T1, DLG1 PDZ2 (Homo sapiens, UniProt Q12959); type: binding; conditions: mean of selections 1-3, bait DLG1 PDZ2
# T1 construct: human DLG1 PDZ2 aa 311–407 in a modified pRSET vector 40; made in house; host or cells: E. coli BL21 Gold (DE3)
# Procedure: (§1) Phage selections were carried out for four rounds following a protocol by Huang and Sidhu (Huang & Sidhu, 2011) with minor modifications. Non‐specific binding phage was removed by pre‐selections against immobilized GST throughout the selection. The selections against the (pre‐)phosphorylated wild‐type library were performed in 50 mM HEPES (pH 7.4) and 150 mM NaCl (HBS) following the same procedure after pre‐phosphorylation of the library.
# (§2) • Immobilize proteins (15 μg in 100 μl PBS) in a 96‐well MaxiSorp microtiter plate (NUNC) overnight at 4°C. • Start a 2YT culture of E. coli Omnimax supplemented with 100 μg/ml tetracycline to retain the F pilus epitope. • Block the wells with 200 μl 0.5% BSA in PBS for 2 h at 4°C. • Precipitate naïve phage library (10^11 cfu per selection) or amplified phage pool from the previous round of selection by adding one‐fifth the volume of PEG/NaCl. • Incubate on ice for 10 min, and pellet precipitated phage by centrifugation at 5,300 g for 15 min. Resuspend the phage pellet in 100 μl PBS per selection. • Add 100 μl of phage solution to the GST‐coated pre‐selection wells and incubate for 1 h. • Transfer the phage solution to the immobilized target proteins and allow it to bind for 2 h at 8°C. • Wash the plate four times with 200 μl cold wash buffer (PBS, 0.05% Tween‐20). • Elute bound phage by incubation with 100 μl log phase (0.6–0.8 OD600) E. coli Omnimax for 30 min at 37°C with shaking (200 RPM). • Add 10^12 cfu/ml M13K07 helper phage for hyperinfection of the bacteria and incubate as above for 45 min. • Transfer the bacterial culture to 10 ml 2YT supplemented with 50 μg/ml carbenicillin, 25 μg/ml kanamycin, and 300 μM IPTG and incubate overnight at 37°C while shaking. • Perform phage pool ELISA to monitor the progress of the selection as described previously (Huang & Sidhu, 2011).
# (§3) The naïve library and the enriched phage pools of the third day of selection were amplified and barcoded by PCR and analyzed by NGS as described elsewhere (McLaughlin & Sidhu, 2013; Ivarsson et al, 2014). The reads were demultiplexed using the barcode sequences and filtered by discarding sequences with a Phred quality score under 30. Sequences were mapped to the original library using Bowtie (Langmead et al, 2009) with two mismatches between reads and library sequence. Nucleotide mutations leading to amino acid substitutions were subsequently removed. Cutoff values of NGS counts were assigned for each pool. PWMs were generated based on the remaining peptides (aligned on the C‐termini) using WebLogo (Crooks et al, 2004).
# (§4) However, there was no significant correlation of the actual read counts (selection “strength”) and the initial representation in the library, reflecting the strong selection during phage display (wt+mimetic: P‐value: 0.49, ρ = −0.08, mimetic only: P‐value: 0.069, ρ = −0.2, wt only: P‐value: 0.12, ρ = 0.17). Consequently, the amount of reads for each binder after phage display is not a function of the amount of input reads in the naïve library and no modeling based on the input library frequencies to score the interactions is necessary. To allow for comparison between replicate selections, we used the fraction of NGS reads within a certain set, instead of the absolute number of NGS reads, as the absolute numbers differ between different NGS batches.
# Scribble PDZ1 = target: T2, Scribble PDZ1 (Homo sapiens, UniProt Q14160); type: binding; conditions: bait Scribble PDZ1; mean of selections 1-3
# T2 construct: human Scribble PDZ1 aa 719–829 in; made in house; host or cells: E. coli BL21 Gold (DE3)
# T2 sequence (Q14160 719-829): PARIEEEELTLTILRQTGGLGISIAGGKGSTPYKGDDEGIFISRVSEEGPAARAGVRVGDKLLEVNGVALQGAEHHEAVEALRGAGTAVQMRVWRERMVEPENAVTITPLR
# Procedure: as §1, §2, §3, §4
# DLG1 PDZ1 = type: binding, human; conditions: mean of selections 1-3, bait DLG1 PDZ1; for Mean fraction #NGS counts mimetic peptide / total count selection: phosphomimetic peptide; for Mean fraction #NGS counts wt peptide / total counts selection: wild type peptide
# Procedure: as §1, §2, §3, §4
# Scribble PDZ3 = type: binding, human; conditions: bait Scribble PDZ3
# Procedure: as §1, §2, §3, §4
# Scribble PDZ2 = type: binding, human; conditions: bait Scribble PDZ2
# Procedure: as §1, §2, §3, §4
# [1] = mean of selections 1 and 2 (selection 3 empty)
# [2] = mean of selections 1-3, wild type peptide
# T1 sequence (Q12959 311-407): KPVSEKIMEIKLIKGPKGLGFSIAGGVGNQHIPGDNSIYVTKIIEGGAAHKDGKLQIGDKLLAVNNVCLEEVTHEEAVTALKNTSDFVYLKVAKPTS
sequence,measurement,setting,value
RSRSISEDV,Mean fraction #NGS counts mimetic peptide / total count selection,DLG1 PDZ2,3.877e-6
same,Mean fraction #NGS counts mimetic peptide / total count selection,Scribble PDZ1,0
same,Mean fraction #NGS counts mimetic peptide / total count selection,DLG1 PDZ1,0
same,Mean fraction #NGS counts mimetic peptide / total count selection,Scribble PDZ3; mean over selections 1-3,0
RSRSISTDV,Mean fraction #NGS counts wt peptide / total counts selection,DLG1 PDZ2,0.02018
same,Mean fraction #NGS counts wt peptide / total counts selection,Scribble PDZ1,0.0001844
same,Mean fraction #NGS counts wt peptide / total counts selection,Scribble PDZ2; [1],0.001899
same,Mean fraction #NGS counts wt peptide / total counts selection,Scribble PDZ3; mean over selections 1-3,0.0004544
SARLWETSI,Mean fraction #NGS counts wt peptide / total counts selection,Scribble PDZ1,0.005032
same,Mean fraction #NGS counts wt peptide / total counts selection,DLG1 PDZ1,5.924e-6
same,Mean fraction #NGS counts wt peptide / total counts selection,Scribble PDZ3; mean over selections 1-3,0.08665
SEGHTSTTL,Mean fraction #NGS counts mimetic peptide / total count selection,DLG1 PDZ1,5.924e-6
SGEYLVTEV,Mean fraction #NGS counts mimetic peptide / total count selection,Scribble PDZ2; mean over selections,0.001329
SGEYLVTSV,Mean fraction #NGS counts mimetic peptide / total count selection,DLG1 PDZ2,0
same,Mean fraction #NGS counts mimetic peptide / total count selection,Scribble PDZ2; [1],0.001139
SGSYLVTSV,Mean fraction #NGS counts wt peptide / total counts selection,DLG1 PDZ2,0.0001258
same,Mean fraction #NGS counts wt peptide / total counts selection,DLG1 PDZ2; wild type peptide,0.0001258
same,Mean fraction #NGS counts wt peptide / total counts selection,Scribble PDZ1,4.38e-5
same,Mean fraction #NGS counts wt peptide / total counts selection,Scribble PDZ2; [1],0.0003798
same,Mean fraction #NGS counts wt peptide / total counts selection,Scribble PDZ2; mean over selections,0.0003798
SQERMETNM,Mean fraction #NGS counts mimetic peptide / total count selection,Scribble PDZ2; [1],0.007678
same,Mean fraction #NGS counts mimetic peptide / total count selection,Scribble PDZ3; mean over selections 1-3,0.0002907
SQSRMSTNM,Mean fraction #NGS counts wt peptide / total counts selection,Scribble PDZ2; [1],0
same,Mean fraction #NGS counts wt peptide / total counts selection,Scribble PDZ3; mean over selections 1-3,0
SSGEQHTNV,Mean fraction #NGS counts mimetic peptide / total count selection,DLG1 PDZ2,5.744e-6
same,Mean fraction #NGS counts mimetic peptide / total count selection,DLG1 PDZ1,0
SSGHTSTTL,Mean fraction #NGS counts wt peptide / total counts selection,DLG1 PDZ1,0
SSGSQHTNV,Mean fraction #NGS counts wt peptide / total counts selection,DLG1 PDZ2,0.001066
same,Mean fraction #NGS counts wt peptide / total counts selection,DLG1 PDZ1,5.9593e-5
TELTWISTL,Mean fraction #NGS counts mimetic peptide / total count selection,Scribble PDZ2; [1],0.002089
TRLEQHTDV,Mean fraction #NGS counts mimetic peptide / total count selection,DLG1 PDZ2,6.6203e-5
same,Mean fraction #NGS counts mimetic peptide / total count selection,DLG1 PDZ1,8.513e-6
TRLSQHTDV,Mean fraction #NGS counts wt peptide / total counts selection,DLG1 PDZ2,0.0007437
same,Mean fraction #NGS counts wt peptide / total counts selection,DLG1 PDZ1,0.0004744
TSLTWISTL,Mean fraction #NGS counts wt peptide / total counts selection,Scribble PDZ2; [1],0
VRKLPSTTL,Mean fraction #NGS counts wt peptide / total counts selection,Scribble PDZ1,6.957e-5
same,Mean fraction #NGS counts wt peptide / total counts selection,Scribble PDZ3; [2],8.076e-6
same,Mean fraction #NGS counts wt peptide / total counts selection,Scribble PDZ3; mean over selections 1-3,8.076e-6
VVHEPETEV,Mean fraction #NGS counts mimetic peptide / total count selection,Scribble PDZ1,4.939e-5
same,Mean fraction #NGS counts mimetic peptide / total count selection,DLG1 PDZ1,1.207e-5
VVHTPETSV,Mean fraction #NGS counts wt peptide / total counts selection,DLG1 PDZ2,3.877e-6
same,Mean fraction #NGS counts wt peptide / total counts selection,Scribble PDZ1,7.859e-5
same,Mean fraction #NGS counts wt peptide / total counts selection,Scribble PDZ2; mean over selections,0
same,Mean fraction #NGS counts wt peptide / total counts selection,Scribble PDZ3; [2],6.402e-5
VVSERIESV,Mean fraction #NGS counts mimetic peptide / total count selection,Scribble PDZ2; [1],0.0001899
VVSERISEV,Mean fraction #NGS counts mimetic peptide / total count selection,DLG1 PDZ2,0.0004709
same,Mean fraction #NGS counts mimetic peptide / total count selection,Scribble PDZ2; mean over selections,0.0003798
VVSERISSV,Mean fraction #NGS counts wt peptide / total counts selection,DLG1 PDZ2,0.0005322
same,Mean fraction #NGS counts wt peptide / total counts selection,Scribble PDZ2; [1],0.003259
same,Mean fraction #NGS counts wt peptide / total counts selection,Scribble PDZ2; mean over selections,0.003259
WVDSYYTEL,Mean fraction #NGS counts mimetic peptide / total count selection,Scribble PDZ2; mean over selections,0.002879
same,Mean fraction #NGS counts mimetic peptide / total count selection,"Scribble PDZ3; mean of selections 1-3, phosphomimetic peptide",0.002589
WVDSYYTSL,Mean fraction #NGS counts wt peptide / total counts selection,Scribble PDZ2; mean over selections,0
same,Mean fraction #NGS counts wt peptide / total counts selection,Scribble PDZ3; [2],0.0003456
YPAEPDSWV,Mean fraction #NGS counts mimetic peptide / total count selection,DLG1 PDZ2,0
same,Mean fraction #NGS counts mimetic peptide / total count selection,Scribble PDZ2; [1],0
YPASPDSWV,Mean fraction #NGS counts wt peptide / total counts selection,DLG1 PDZ2,0.0001112
same,Mean fraction #NGS counts wt peptide / total counts selection,Scribble PDZ2; [1],0.02304
YPGEPDEWV,Mean fraction #NGS counts mimetic peptide / total count selection,DLG1 PDZ2,0
same,Mean fraction #NGS counts mimetic peptide / total count selection,DLG1 PDZ1,0.01439
YPGEPDSWV,Mean fraction #NGS counts mimetic peptide / total count selection,Scribble PDZ2; [1],0
YPGSPDEWV,Mean fraction #NGS counts mimetic peptide / total count selection,Scribble PDZ2; [1],0
